Tests used:
[1] = tested on: P. aeruginosa MB9799 (efflux-, IMP-1 plasmid); format: cell-based, Pseudomonas aeruginosa; conditions: efflux − (MB9799) strain; imipenem at 2 μg/mL; in the presence of a class A, C, D serine β-lactamase inhibitor closely related to relebactam
How it was run: (§1)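 Isogenic P. aeruginosa PAO1 strains (efflux+ and multiple-efflux-pump-disrupted) carrying plasmid IMP-1, with inducible AmpC, tested by broth microdilution. Imipenem and/or ceftazidime fixed, usually at CLSI breakpoint, plus fixed class A/C β-lactamase inhibitor; titrated MBL inhibitor concentration restoring susceptibility recorded and compared between strains as efflux fold difference.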

NDM-1 = NDM-1 (Klebsiella pneumoniae, UniProt C7C422); assay: biochemical; format: biochemical; conditions: CCF2-FA fluorescence assay, 2 hours at 25° C.
How it was run: (§2)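 Enzyme (NDM-1 1 pM, IMP-1 2 pM, VIM-1 30 pM final) and 1.25 μM CCF2-FA incubated with inhibitor (20 to 0.00063 μM) for 2 h at 25° C in 100 mM KH2PO4 pH 7, 0.005% Tween-20, 10 μM ZnSO4. Fluorescence read at ex 405/em 460 nm; IC50 by 4-parameter fit.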

VIM-2 = VIM-2 (Escherichia coli, UniProt Q5U7L7); assay: biochemical; conditions: CCF2-FA fluorescence assay; read-out: VIM2 IC50
IMP-1 = IMP-1 (Serratia marcescens, UniProt P52699); assay: biochemical; conditions: CCF2-FA fluorescence assay, 2 hours at 25° C.; read-out: IMP1 IC50
How it was run: as §2

VIM-1 = VIM-1 (Pseudomonas aeruginosa (strain ATCC 15692 / DSM 22644 / CIP 104116 / JCM 14847 / LMG 12228 / 1C / PRS 101 / PAO1), UniProt A0A0F7KYQ8); assay: biochemical; conditions: CCF2-FA fluorescence assay, 2 hours at 25° C.; read-out: VIM1 IC50
How it was run: as §2

[2] = tested on: Serratia marcescens expressing IMP-1 (CL5741); format: cell-based; conditions: with imipenem 1 μg/ml; 95% inhibition of bacterial growth
How it was run: (§3)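 Synergy with imipenem at a fixed 1 μg/ml was scored by absorbance following 22–24 h incubation at 35 °C; the potentiating concentration (MITC95) was the lowest giving 95% growth inhibition.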

[3] = tested on: Escherichia coli expressing NDM-1 (CLB30016); format: cell-based; conditions: with imipenem 1 μg/ml; 95% inhibition of bacterial growth
How it was run: as §3

[4] = tested on: Klebsiella pneumoniae expressing VIM-1 (IHMA599644); format: cell-based; conditions: with imipenem 1 μg/ml; 95% inhibition of bacterial growth
How it was run: as §3

[5] = tested on: P. aeruginosa MB9798 (efflux+, IMP-1 plasmid); conditions: for MB9798 MITC95 P. aeruginosa uM Efflux WT: efflux + (MB9798) strain, imipenem at 2 μg/mL, in the presence of a class A, C, D serine β-lactamase inhibitor closely related to relebactam; for Efflux ratio: fold difference between efflux+ (MB9798) and efflux− (MB9799) strains
How it was run: as §1

Chain of NDM-1 (C7C422 whole entry, looked up, species assumed): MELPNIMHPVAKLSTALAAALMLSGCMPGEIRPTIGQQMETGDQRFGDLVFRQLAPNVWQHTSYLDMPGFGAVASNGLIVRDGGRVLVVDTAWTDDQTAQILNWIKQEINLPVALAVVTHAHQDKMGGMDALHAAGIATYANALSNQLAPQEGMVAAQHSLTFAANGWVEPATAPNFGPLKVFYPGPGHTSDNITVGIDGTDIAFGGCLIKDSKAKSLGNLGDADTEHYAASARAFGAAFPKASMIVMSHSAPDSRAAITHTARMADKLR
Chain of IMP-1 (P52699 whole entry, looked up, species assumed): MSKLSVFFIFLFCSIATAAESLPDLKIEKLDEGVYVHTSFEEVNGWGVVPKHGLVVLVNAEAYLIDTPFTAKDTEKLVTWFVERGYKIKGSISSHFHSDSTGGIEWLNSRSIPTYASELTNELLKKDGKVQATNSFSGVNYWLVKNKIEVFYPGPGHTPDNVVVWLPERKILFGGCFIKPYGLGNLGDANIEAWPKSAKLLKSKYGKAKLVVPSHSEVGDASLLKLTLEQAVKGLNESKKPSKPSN

SMILES	MB9799 MITC95 P. aeruginosa uM Efflux Mutant [1]	IC50 (NDM-1)	IC50 (VIM-2)	IC50 (IMP-1)	IC50 (VIM-1)	CL5741 S. marcescens MITC95 IMP [2]	CLB30016 E. coli MITC95 NDM [3]	IHMA599644 K. pneumoniae MITC95 VIM [4]	MB9798 MITC95 P. aeruginosa uM Efflux WT [5]	Efflux ratio [5]
NS(=O)(=O)c1c(S(=O)(=O)N[C@@H]2CCNC2)ccc(N2CCC(OCCO)CC2)c1-c1nnn[nH]1 [Example 88, 4-[4-(2-hydroxyethoxy)piperidin-1-yl]-N1-[(3R)-pyrrolidin-3-yl]-3-(1H-tetrazol-5-yl)benzene-1,2-disulfonamide]	6.25 µM	0.08 nM	0.97 nM	0.13 nM	0.19 nM	12.50 µM	12.50 µM	12.50 µM	6.25 µM	1.00
NCC1(O)CCN(c2ccc(S(=O)(=O)N[C@@H]3CCNC3)c(S(N)(=O)=O)c2-c2nnn[nH]2)CC1 [Example 85, 4-[4-(aminomethyl)-4-hydroxypiperidin-1-yl]-N1-[(3R)-pyrrolidin-3-yl]-3-(1H-tetrazol-5-yl)benzene-1,2-disulfonamide]	0.78 µM	3.15 nM	23.7 nM	9.94 nM	2.13 nM	1.56 µM	0.78 µM	1.56 µM	1.56 µM	2.00
NCCN1CCN(c2ccc(S(=O)(=O)NC[C@H](O)CN)c(S(N)(=O)=O)c2-c2nnn[nH]2)CC1 [Example 51, (R)-N1-(3-amino-2-hydroxypropyl)-4-(4-(2-aminoethyl)piper-azin-1-yl)-3-(1H-tetrazol-5-yl)benzene-1,2-disulfonamide]	0.39 µM	1.4 nM	3.07 nM	1.92 nM	0.29 nM	0.39 µM	0.78 µM	0.78 µM	0.78 µM	2.00
CC1(O)CCCN(c2ccc(S(=O)(=O)C3CNC3)c(S(N)(=O)=O)c2-c2nnn[nH]2)C1 (stereo not drawn) [Example 59, 6-(azetidin-3-ylsulfonyl)-3-(3-hydroxy-3-methylpiperidin-1-yl)-2-(1H-tetrazol-5-yl)benzenesulfonamide]	3.13 µM	3.22 nM	2.18 nM	8.38 nM	1.84 nM	6.25 µM	6.25 µM	6.25 µM	50.00 µM	16.00
NCC(O)C1CCN(c2ccc(S(=O)(=O)NC[C@H](O)CN)c(S(N)(=O)=O)c2-c2nn[nH]n2)CC1 (stereo partly drawn) [Example 132, 4-(4-(2-amino-1-hydroxyethyl)piperidin-1-yl)-N1-((R)-3-amino-2-hydroxypropyl)-3-(2H-tetrazol-5-yl)benzene-1,2-disulfonamide]	0.78 µM	1.34 nM	4.28 nM	2.49 nM	0.19 nM	0.78 µM	0.39 µM	1.56 µM	0.78 µM	1.00
NS(=O)(=O)c1c(S(=O)(=O)N[C@@H]2CCNC2)ccc(N2CCCC(C(=O)NCCCO)C2)c1-c1nnn[nH]1 (stereo partly drawn) [Example 108, N-(3-hydroxypropyl)-1-{4-[(3R)-pyrrolidin-3-ylsulfamoyl]-3-sulfamoyl-2-(1H-tetrazol-5-yl)phenyl}piperidine-3-carboxamide]	6.25 µM	0.71 nM	1.77 nM	2.39 nM	0.5 nM	12.50 µM	6.25 µM	12.50 µM	12.50 µM	2.00

Source: patent publication US11207312B2, “Metallo-beta-lactamase inhibitors and methods of use thereof” (priority 2017, dated 2021)
